Tests used:
HSP90-HOP interaction = test: HSP90 coimmunoprecipitation, HOP; type: cell-based; settings: SKBR-3 cells; celastrol 2.5 μM, 12 hr
Description: Geldanamycin and other HSP90 inhibitors are known to inhibit p23 association with HSP90 (Felts et al., 2003). In contrast, HSP90-HOP interaction was unaltered by celastrol and other HSP90 inhibitors (FIG. 7F). Thus, celastrol inhibits the functional interactions of HSP90 and suppresses HSP90 client levels.
(§1) SKBR-3 cells were treated with vehicle, celastrol (2.5 μM, 12 hr), and PU24FCI (20 μM, 24 hr) (Vilenchik et al., 2004). Cells were lysed in 20 mM Tris HCl (pH 7.4), 25 mM NaCl, 2 mM DDT, 20 mM Na2MoO4, 0.1% NP-40, and […]. Lysates were incubated for 2 hr at 4° C., rotating, and then centrifuged at 13,000×g for 10 min. Protein (500 μg) was incubated with H9010 anti-HSP90 antibody for 1 hr at 4° C., rotating. Protein G agarose (30 μl; Upstate) was added to each sample, and samples were then incubated for 1 hr at 4° C., rotating. The beads were washed five times with 1 ml lysis buffer. Bound proteins were isolated by boiling in sample buffer. The levels of HSP90 and coimmunoprecipitating proteins were analyzed by western blot.

[1] = system: rat models for Alzheimer's disease; settings: 7 mg/kg daily; cited from earlier work
gedunin signature = test: Connectivity Map query with the gedunin signature; type: cell-based, human
Method in brief: (§2)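 LNCaP cells received celastrol 1.25 μM or gedunin 20 μM for 6 h. Each signature was scored by Kolmogorov–Smirnov-based connectivity against 453 build01 profiles, mostly 6 h treatments of MCF7 cells.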

celastrol signature = test: Connectivity Map query with the celastrol signature; type: cell-based, human
Method in brief: as §2

HSP70 = settings: Westerheide et al., 2004; cited from earlier work
[2] = system: HSP90 interaction with the cochaperone p23; test: HSP90 coimmunoprecipitation, p23; type: cell-based; settings: SKBR-3 cells; celastrol 2.5 μM, 12 hr
Description: Geldanamycin and other HSP90 inhibitors are known to inhibit p23 association with HSP90 (Felts et al., 2003).
as §1

In the case of CC1=C(O)C(=O)C=C2C1=CC=C1[C@@]2(C)CC[C@@]2(C)[C@@H]3C[C@](C)(C(=O)O)CC[C@]3(C)CC[C@]12C [celastrol], the “HSP90-HOP interaction (coimmunoprecipitation)” value (HSP90-HOP interaction) is given as “unaltered”, the “activity in rat models for Alzheimer's disease” value [1] is given as “activity” and the “gedunin score (connectivity score)” value (gedunin signature; enrichment of the gedunin signature (20 μM gedunin at 6 hours, LNCaP) in the compound's Connectivity Map profiles, 6 hr treatment) is given as 0.997. For the same molecule, the “Connectivity Map rank of match for the gedunin signature” value (gedunin signature; out of 164 compounds, signature from LNCaP 20 μM, 6 hr) was “top match”, the “celastrol score (connectivity score)” value (celastrol signature; enrichment of the celastrol signature (1.25 μM celastrol at 6 h, LNCaP) in the compound's Connectivity Map profiles, 6 hr treatment) was 0.85 and the “Connectivity Map rank of match for the celastrol signature” value (celastrol signature; out of 164 compounds, signature from LNCaP 1.25 μM, 6 hr) was “fourth-ranked match”. The HSP70 levels (HSP70) was “induce HSP70 levels” and the “HSP90 interaction with cochaperone p23 (coimmunoprecipitation)” value [2] was “reduced HSP90 interaction with the cochaperone p23”.

Reference: patent publication US20110263693A1, “CELASTROL, GEDUNIN, AND DERIVATIVES THEREOF AS HSP90 INHIBITORS” (DANA-FARBER CANCER INSTITUTE, INC., priority 2006, published 2011)
